Measured values from ChEMBL document CHEMBL1201862, “PubChem BioAssay data set” (2004).
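1) Cells in 96-well plates. 2) Compound, 48 h, 5 concentrations. 3) Linear interpolation between surrounding doses. 4) Unreached endpoint = highest concentration. Here, GI50 denotes the concentration required for 50% inhibition of growth.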 Active and inactive are the calls of the source. Cut-off read from the data, not from the text of the source: active = GI50 up to about 1.1 µM and inactive = higher.

What was measured:
Assay in all cases: growth of human tumour cells (NCI), 48 h
A549 = system: A549
ACHN = system: ACHN
COLO 205 = system: COLO 205
HCC 2998 = system: HCC 2998
HL-60 = system: HL-60
HT-29 = system: HT-29
K562 = system: K562
KM12 = system: KM12
M14 = system: M14
MOLT-4 = system: MOLT-4
RPMI-8226 = system: RPMI-8226
SF-268 = system: SF-268
SF-295 = system: SF-295
SK-MEL-28 = system: SK-MEL-28
SK-OV-3 = system: SK-OV-3
SR = system: SR
TK-10 = system: TK-10
UO-31 = system: UO-31
786-0 = system: 786-0
SF-539 = system: SF-539

Row | SMILES | GI50 (A549) | GI50 (ACHN) | GI50 (COLO 205) | GI50 (HCC 2998) | GI50 (HL-60) | GI50 (HT-29) | GI50 (K562) | GI50 (KM12) | GI50 (M14) | GI50 (MOLT-4) | GI50 (RPMI-8226) | GI50 (SF-268) | GI50 (SF-295) | GI50 (SK-MEL-28) | GI50 (SK-OV-3) | GI50 (SR) | GI50 (TK-10) | GI50 (UO-31) | GI50 (786-0) | GI50 (SF-539)
1 | Fc1ccc(C(OCCN2CCN(CCCc3ccccc3)CC2)c2ccc(F)cc2)cc1 | 3.58 µM (inactive) | 5.82 µM (inactive) | 2.75 µM (inactive) | 3.79 µM (inactive) | 4.2 µM (inactive) | 3.13 µM (inactive) | 3.05 µM (inactive) | 4.19 µM (inactive) | 3.12 µM (inactive) | 4.26 µM (inactive) | 2.58 µM (inactive) | 4.18 µM (inactive) | 4.39 µM (inactive) | 9.73 µM (inactive) | 6.04 µM (inactive) | 2.71 µM (inactive) | 5.77 µM (inactive) | 2.73 µM (inactive) |  | 
2 | Nc1nc(Cl)cc(NCC2(CO)CC(c3ccccc3)C2)n1 (configuration not stated) | 26.2 µM (inactive) | 16.1 µM (inactive) | 29.1 µM (inactive) |  | 17.6 µM (inactive) | 30 µM (inactive) | 9.57 µM (inactive) | 39.5 µM (inactive) | 34.6 µM (inactive) | 19.8 µM (inactive) | 17.2 µM (inactive) | 94.4 µM (inactive) | > 100 µM (inactive) | 53.3 µM (inactive) | 54.2 µM (inactive) | 7.59 µM (inactive) | 95.1 µM (inactive) | 16.6 µM (inactive) | > 100 µM (inactive) | > 100 µM (inactive)
3 | Cc1ncc2c(n1)CCC1=C2OS(=O)(=O)CC1N(C)C (configuration not stated) | > 100 µM (inactive) | > 100 µM (inactive) | > 100 µM (inactive) |  | > 100 µM (inactive) | > 100 µM (inactive) | > 100 µM (inactive) | > 100 µM (inactive) | 95.9 µM (inactive) | > 100 µM (inactive) | > 100 µM (inactive) | > 100 µM (inactive) |  | > 100 µM (inactive) | > 100 µM (inactive) | > 100 µM (inactive) | > 100 µM (inactive) | > 100 µM (inactive) | > 100 µM (inactive) | > 100 µM (inactive)
4 | N/C(=N\c1c([N+](=O)[O-])cnc2ccccc12)N1CCOCC1 | > 100 µM (inactive) | > 100 µM (inactive) | > 100 µM (inactive) |  | > 100 µM (inactive) | > 100 µM (inactive) | > 100 µM (inactive) | > 100 µM (inactive) | > 100 µM (inactive) | > 100 µM (inactive) | > 100 µM (inactive) | > 100 µM (inactive) | 86.9 µM (inactive) | > 100 µM (inactive) | > 100 µM (inactive) | > 100 µM (inactive) | > 100 µM (inactive) | > 100 µM (inactive) | > 100 µM (inactive) | > 100 µM (inactive)
5 | COc1ccc(C(=O)/C=C/S/C(=N/C#N)SC)cc1 | > 100 µM (inactive) | 20.4 µM (inactive) | 19.7 µM (inactive) |  | 16.6 µM (inactive) | 19.8 µM (inactive) | 10.7 µM (inactive) | 25.9 µM (inactive) | 18.3 µM (inactive) | 5.77 µM (inactive) | 4.33 µM (inactive) | 25.8 µM (inactive) | 28 µM (inactive) | 30.2 µM (inactive) | 26.2 µM (inactive) | 3.95 µM (inactive) | 20.8 µM (inactive) | 17.9 µM (inactive) | 19 µM (inactive) | 20 µM (inactive)
6 | CC(=O)C1C(=O)C(=O)N(c2ccc(Cl)cc2C)C1=O (configuration not stated) | > 100 µM (inactive) | > 100 µM (inactive) | > 100 µM (inactive) | > 100 µM (inactive) | > 100 µM (inactive) | > 100 µM (inactive) | > 100 µM (inactive) | > 100 µM (inactive) | > 100 µM (inactive) | > 100 µM (inactive) |  | > 100 µM (inactive) | > 100 µM (inactive) | > 100 µM (inactive) |  | > 100 µM (inactive) | > 100 µM (inactive) | > 100 µM (inactive) | > 100 µM (inactive) | > 100 µM (inactive)
7 | O=C1NC2CCCCCC2C12CCCCC2 (configuration not stated) | > 100 µM (inactive) | > 100 µM (inactive) |  | > 100 µM (inactive) | > 100 µM (inactive) | > 100 µM (inactive) | > 100 µM (inactive) | > 100 µM (inactive) | > 100 µM (inactive) | > 100 µM (inactive) |  | > 100 µM (inactive) | > 100 µM (inactive) | > 100 µM (inactive) | > 100 µM (inactive) | > 100 µM (inactive) | > 100 µM (inactive) | > 100 µM (inactive) |  | > 100 µM (inactive)
8 | COc1cccc(C(=O)C#Cc2cnc(OC)nc2OC)c1 | 4.82 µM (inactive) | 1.73 µM (inactive) | 1.77 µM (inactive) | 6.43 µM (inactive) | 0.682 µM (active) | 1.09 µM (active) | 0.356 µM (active) | 3.94 µM (inactive) | 1.21 µM (inactive) | 0.155 µM (active) | 2.01 µM (inactive) | 2.49 µM (inactive) | 14.2 µM (inactive) | 2.04 µM (inactive) | 18.1 µM (inactive) | 0.108 µM (active) | 1.43 µM (inactive) | 1.37 µM (inactive) | 1.83 µM (inactive) | 
9 | O=C(Nc1ccn(C2CC(O)C(COC(c3ccccc3)(c3ccccc3)c3ccccc3)O2)c(=O)n1)c1ccccc1 (configuration not stated) | 4.54 µM (inactive) | 3.35 µM (inactive) | 2.09 µM (inactive) | 7.36 µM (inactive) | 2.61 µM (inactive) | 1.71 µM (inactive) | 2.92 µM (inactive) | 4.35 µM (inactive) | 2.3 µM (inactive) | 2.16 µM (inactive) | 2.53 µM (inactive) | 5.06 µM (inactive) | 1.96 µM (inactive) | 3.08 µM (inactive) | 11.5 µM (inactive) | 2.44 µM (inactive) |  | 6.81 µM (inactive) | 1.98 µM (inactive) | 3.36 µM (inactive)
10 | O=c1cnnc2sc(=S)[nH]n12 | 46.7 µM (inactive) | 53.5 µM (inactive) | > 100 µM (inactive) | 44.5 µM (inactive) | 16.6 µM (inactive) | 39.8 µM (inactive) | 15.6 µM (inactive) | > 100 µM (inactive) | 84.1 µM (inactive) | 15 µM (inactive) | 13.7 µM (inactive) | 5.04 µM (inactive) | 2.97 µM (inactive) | 65.5 µM (inactive) |  | 22.4 µM (inactive) |  | 22.2 µM (inactive) | 22.5 µM (inactive) | > 100 µM (inactive)
11 | COc1ccc(/C=C2/SC(c3ccccc3)N(NC(=O)CCCCCCCCC(=O)NN3C(=O)/C(=C\c4ccc(OC)c(OC)c4)SC3c3ccccc3)C2=O)cc1OC (configuration not stated) | > 100 µM (inactive) | 25.6 µM (inactive) | > 100 µM (inactive) | > 100 µM (inactive) |  | 71.8 µM (inactive) | 6.59 µM (inactive) | 45 µM (inactive) | > 100 µM (inactive) | 19.7 µM (inactive) | 20.7 µM (inactive) | 69.3 µM (inactive) | 24.2 µM (inactive) | 48 µM (inactive) | 48.6 µM (inactive) | 15.6 µM (inactive) | > 100 µM (inactive) | 58.2 µM (inactive) | 19.6 µM (inactive) | 24.6 µM (inactive)
12 | CC(C)(C)OC(=O)NC(Cc1ccccc1)C(=O)N[C@H]1c2ccsc2/C(=N/O)[C@H]1O (some centres not stated) | > 100 µM (inactive) |  | > 100 µM (inactive) | > 100 µM (inactive) | 86.1 µM (inactive) | > 100 µM (inactive) | > 100 µM (inactive) |  | > 100 µM (inactive) | 83 µM (inactive) |  |  | > 100 µM (inactive) |  | > 100 µM (inactive) | > 100 µM (inactive) | > 100 µM (inactive) | > 100 µM (inactive) |  | > 100 µM (inactive)
13 | Cc1ccc2nc(NC(=O)/C(Cc3nc4ccc(Cl)cc4nc3O)=N\NC(C)(C)C)sc2c1 | > 100 µM (inactive) | > 100 µM (inactive) | > 100 µM (inactive) | > 100 µM (inactive) | > 100 µM (inactive) | > 100 µM (inactive) | > 100 µM (inactive) | > 100 µM (inactive) | > 100 µM (inactive) | > 100 µM (inactive) | > 100 µM (inactive) | 97.9 µM (inactive) | 36.1 µM (inactive) | > 100 µM (inactive) | > 100 µM (inactive) | > 100 µM (inactive) |  | 59.6 µM (inactive) | > 100 µM (inactive) | > 100 µM (inactive)
14 | CCN(CC)CCNC(=O)c1cc2cc(NC(=O)c3cc4cc(NC(=O)c5cc6cc(N)ccc6[nH]5)ccc4[nH]3)ccc2[nH]1 | > 100 µM (inactive) | > 100 µM (inactive) | > 100 µM (inactive) | > 100 µM (inactive) |  | > 100 µM (inactive) | > 100 µM (inactive) | > 100 µM (inactive) | > 100 µM (inactive) | > 100 µM (inactive) | > 100 µM (inactive) | > 100 µM (inactive) | > 100 µM (inactive) | > 100 µM (inactive) | > 100 µM (inactive) | > 100 µM (inactive) | > 100 µM (inactive) | > 100 µM (inactive) | > 100 µM (inactive) | 
15 | COc1ccc(-c2nc(-c3cnccn3)n(Cc3ccccc3)n2)cc1 | > 100 µM (inactive) |  | > 100 µM (inactive) | > 100 µM (inactive) | > 100 µM (inactive) | > 100 µM (inactive) | > 100 µM (inactive) | > 100 µM (inactive) | > 100 µM (inactive) | > 100 µM (inactive) | > 100 µM (inactive) | > 100 µM (inactive) | > 100 µM (inactive) | > 100 µM (inactive) | > 100 µM (inactive) | > 100 µM (inactive) |  | > 100 µM (inactive) | > 100 µM (inactive) | > 100 µM (inactive)
